Residues, ends and D or L forms follow the SMILES beside them.
Key:
[1] = Comparative stability of aspartame and aspartame ethoid in PBS solution (HPLC-MS); format: physicochemical; settings: for half-life: 65° C., PBS pH 7.5; for Cyclized product (%) / SM (%): AUC at 214 nm; for degradation at the 12 hour time point: FIG. 1, PBS pH 7.5, 65° C.
Procedure: Solutions of Aspartame and Compound 1 were prepared by dissolving 10 mg of the subject dipeptide in 4 ml of PBS, pH=7.5. […] Aliquots (50 μl) were withdrawn at the following times: 0, 24 h, 36 h, 48 h and 60 h, and diluted with 125 μl of methanol/acetonitrile/0.1% TFA.
The samples were analyzed by HPLC-MS, using a Gilson HPLC with dual wavelengths UV detector (214 and 254 nm). The following conditions were employed: column: C18; 4.6×250 mm; 5 μmx 6A; solvent system: H2O-1% TFA/Acetonitrile-1% TFA, 1 ml/min, with a gradient of 10% organic phase to 100% organic phase in 10 minutes, followed by a 10 minute hold at 100% of organic phase. As shown in the reaction schemes above, decomposition proceeds mainly via a cyclization reaction to form the corresponding cyclized product and methanol.
The AUC (at 214 nm) values corresponding to the dipeptide and corresponding cyclized products (aspartame→diketopiperazine and aspartame ethoid→ketooxazine) are summarized in the following Table.
See, e.g., FIG. 1, which provides plots of the logarithm of percent of intact dipeptide remaining over time, in hours, for both aspartame and the methyleneoxy ethoid of aspartame. […] The rate of degradation of the methyleneoxy ethoid of aspartame is time, temperature, and pH dependent.

[2] = reported, background; cited from earlier work
[3] = system: taste-test volunteers; assay: Blind taste test of sweetening potency of aqueous solutions; format: in vivo; settings: aqueous solutions at 1 mg/ml and 5 mg/ml, six volunteers
Procedure: The sweetening potency of Compounds 1 and 2 was established by conducting blind taste tests of aqueous solutions of each of Compound 1 and 2 compared to aqueous solutions of each of sucrose and aspartame at concentrations of both 1 mg/ml and 5 mg/ml. […] Furthermore, Compound 1, the ethoid version of aspartame, was reported to be approximately 5 to 10 times sweeter than aspartame by the taste-test volunteers.

[4] = Solution stability of methyleneoxy ethoid of neotame relative to neotame; format: physicochemical; settings: FIG. 5B, 60° C., PBS pH 7.5, hydrolysis of methyl ester
Procedure: FIGS. 5A and 5B illustrate the temperature stability of an exemplary ethoid of neotame compared to neotame itself. […] FIG. 5B provides a comparison of the rate of degradation of the methyleneoxy ethoid of neotame versus neotame over time at 60° C. in a solution of phosphate buffered saline at pH 7.5. Specifically, FIG. 5B is a plot of the natural logarithm of the concentration of (neotame/neotame ethoid) over time. The decomposition reaction proceeds via hydrolysis of the methyl ester to the corresponding di-carboxylic acid.
The solution stability of Compound 3 at various temperatures was examined and compared to that of neotame.
The major route leading to loss of neotame is hydrolysis of the methyl ester group as shown above. […] The rates of degradation of neotame and the methyleneoxy ethoid of neotame were examined and compared. […] FIG. 5B is a plot comparing the rate of degradation of neotame to that of the corresponding ethoid.

Row | SMILES | half-life [1] [h] | Cyclized product (%) ([1]; PBS pH 7.5, 40° C., time 0 h) | SM (%) ([1]; PBS pH 7.5, 40° C., time 0 h) | Cyclized product (%) ([1]; PBS pH 7.5, 40° C., time 24 h) | SM (%) ([1]; PBS pH 7.5, 40° C., time 24 h) | Cyclized product (%) ([1]; PBS pH 7.5, 40° C., time 36 h) | SM (%) ([1]; PBS pH 7.5, 40° C., time 36 h) | Cyclized product (%) ([1]; PBS pH 7.5, 40° C., time 48 h) | SM (%) ([1]; PBS pH 7.5, 40° C., time 48 h) | Cyclized product (%) ([1]; PBS pH 7.5, 40° C., time 60 h) | SM (%) ([1]; PBS pH 7.5, 40° C., time 60 h) | degradation at the 12 hour time point [1] | sweetness relative to sugar [2] | sweetness compared to sucrose solution [3] | also measured
1 | CC(=O)NC(COC(CCCCN)C(=O)O)Cc1ccccc1 (centres unmarked) [Compound 2, N—Ac-Phe-CH2—O-Lys] |  |  |  |  |  |  |  |  |  |  |  |  |  | significantly sweeter than sugar | 
2 | COC(=O)C(Cc1ccccc1)OCC(CC(=O)O)NCCC(C)(C)C (centres unmarked) [Compound 3] |  |  |  |  |  |  |  |  |  |  |  |  |  |  | rate of degradation compared to neotame [4]: nearly identical
3 | O=C1NS(=O)(=O)c2ccccc21 [saccharin] |  |  |  |  |  |  |  |  |  |  |  |  | 300-450 times |  | 

Continued, in another order:

Row | half-life [1] [h] | Cyclized product (%) ([1]; PBS pH 7.5, 40° C., time 0 h) | SM (%) ([1]; PBS pH 7.5, 40° C., time 0 h) | Cyclized product (%) ([1]; PBS pH 7.5, 40° C., time 24 h) | SM (%) ([1]; PBS pH 7.5, 40° C., time 24 h) | Cyclized product (%) ([1]; PBS pH 7.5, 40° C., time 36 h) | SM (%) ([1]; PBS pH 7.5, 40° C., time 36 h) | Cyclized product (%) ([1]; PBS pH 7.5, 40° C., time 48 h) | SM (%) ([1]; PBS pH 7.5, 40° C., time 48 h) | Cyclized product (%) ([1]; PBS pH 7.5, 40° C., time 60 h) | SM (%) ([1]; PBS pH 7.5, 40° C., time 60 h) | degradation at the 12 hour time point [1] | SMILES | sweetness relative to sugar [2] | sweetness compared to sucrose solution [3] | also measured
4 | 2.5 | 0 | 100 | 95 | 5 | 100 | 0 | 100 | 0 | 100 | 0 | essentially complete | COC(=O)[C@H](Cc1ccccc1)NC(=O)[C@@H](N)CC(=O)O [Aspartame, L-aspartyl-L-phenylalanine methyl ester, reference compound] (H-Asp-Phe-OMe) | approximately 150 times |  | sweetness relative to an equivalent amount of sugar [2]: 150 fold
5 | 305 | 0 | 100 | 0 | 100 | 0 | 100 | 0 | 100 | 0 | 100 | negligible | COC(=O)C(Cc1ccccc1)OCC(N)CC(=O)O (centres unmarked) [Compound 1, asp-CH2—O-phe] |  | significantly sweeter than sugar | sweetness relative to aspartame [3]: several-fold sweeter; phenylalanine formation upon degradation [1]: does not form phenylalanine; diketopiperazine formation upon degradation ([1]; Example 4): no diketopiperazine (dkkp) formation; degradation in solution at 40° C. ([1]; PBS pH 7.5, 40° C., up to 60 h): essentially no degradation was observed; improvement of stability over aspartame ([1]; half lives at 65° C., ethoid versus aspartame): over a hundred-fold
